The test system of assay [1] is PC-3 (PSMA-) prostate cancer cells. Briefly: Luminescence cytotoxicity assay, absence of effector cells, PC-3. It counts as cell-based. As to conditions: PC-3 (PSMA absent), up to 20 nM, 4 days incubation. On the procedure: (§1) Firefly luciferase transduced prostate cancer target cell lines were used for cytotoxicity assays, LNCaP (ATCC® CRL-1740™), PSMA+(cultured in RPMI-1640+10% non-heat-inactivated FBS+0.5 μg/mL Puromycin) and PC-3 (ATCC® CRL-1435™), PSMA-(cultured in RPMI-1640+10% heat-inactivated FBS+1.0 μg/mL Puromycin). Cells were harvested with TrypLE (ThermoFisher Scientific) then resuspended in fresh RPMI-1640+10% heat-inactivated FBS and plated at 4,000 cells/well in 100 μL. After overnight incubation at 37° C. in a humidified 5% CO2 incubator, serial dilutions of proteins in RPMI-1640+10% heat-inactivated medium (50 μL) were added to the assay plates at the indicated concentrations. In experiments utilizing effector cells, freshly thawed peripheral blood mononuclear cells (PBMCs) were washed with media and added to the assay plates at 40,000 cells in 50 μL to obtain an effector:target ratio of 10:1. After 4 days incubation, 90 μL was removed from assay plates and 90 μL ONE Glo Luciferase Assay Reagent (Promega # E6120) was mixed with the samples and incubated at room temperature for 10 min. Samples were transferred to white 96-well flat bottom plates for luminescence measurements using a PerkinElmer EnSpire multimode plate reader. Data was analyzed using GraphPad Prism software.

Assay [2] relates to LNCaP (PSMA+) prostate cancer cells. The assay is described as follows: Luminescence cytotoxicity assay, absence of effector cells, LNCaP. Format: cell-based. As to conditions: LNCaP (PSMA present), up to 20 nM, 4 days incubation. On the procedure: as §1

Molecules are shown by their SMILES.

For the compound `O=C(O)CCC(NC(=O)NC(CCC(=O)O)C(=O)O)C(=O)O` (centres unmarked) [DUPA small molecule, 2-[3-(1,3-dicarboxypropyl)ureido]pentanedioic acid], the “dose-dependent cell killing activity” value in assay [1] and in assay [2] was “No dose-dependent cell killing activity was observed” each time.

The record behind these values is US10799598B2, “Disulfide bridging conjugates” (Sorrento Therapeutics, Inc., priority 2017, dated 2020).
